Biological target: T1, human recombinant MnSOD (Homo sapiens, UniProt P04179)
T1 sequence (P04179 25-222): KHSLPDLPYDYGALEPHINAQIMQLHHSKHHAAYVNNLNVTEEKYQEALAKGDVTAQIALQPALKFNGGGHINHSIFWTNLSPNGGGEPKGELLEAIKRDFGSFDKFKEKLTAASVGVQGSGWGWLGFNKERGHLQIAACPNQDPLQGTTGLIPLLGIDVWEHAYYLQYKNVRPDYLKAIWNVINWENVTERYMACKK
Test: SOD activity of human recombinant MnSOD treated with peroxynitrite
Type: biochemical
Settings: human recombinant MnSOD with peroxynitrite (2.1 mM PN), 10 minutes on ice
Method: Peroxynitrite was diluted by 40 times with 0.3 M NaOH, and absorbance at 302 nm was measured. Then, it was quantified by using the molar absorption coefficient of peroxynitrite) (ε302=1670 M^−1 cm^−1).
For the measurement of SOD activity, SOD colorimetric activity kit by ThermoFisher was used. Human recombinant MnSOD within reference SOD range, peptide, and peroxynitrite were admixed with one another, and the reaction was allowed to occur on ice for 10 minutes. To a 96-well plate, 10 μl of reference SOD or the reaction mixture, and 50 μl of a substrate solution provided in the kit were added, and the absorbance at 450 nm was measured. After adding 25μl of xanthine oxidase provided in the kit and allowing the reaction to occur for 20 minutes at room temperature, absorbance at 450 nm was measured. By using the data obtained by subtracting the first-measured absorbance from the second-measured absorbance, SOD activity was obtained.

MnSOD (SOD) activity: higher MnSOD activity
Compound: N[C@H](Cc1ccc(O)cc1)C(=O)O [D-tyrosine]
